This note sets out measurements from US20230278972A1, “SUBSTITUTED HALOALKYL SULFONANILIDE HERBICIDES” (FMC Corporation, priority 2020, published 2023).

Read-outs that look alike come from different tables or passages of the source.

In test [1] the test system is ragweed (common ragweed, Ambrosia artemisiifolia). Kind of test: Test A postemergence, ragweed. The test is classed as in vivo. The note with it: Ambrosia artemisiifolia, post-emergence, 240 h, Postemergence, 0 to 100 scale (0 no effect, 100 complete control); for pest or weed control at 125 g/ha: 125 g ai/ha; for pest or weed control at 500 g/ha: 500 g ai/ha. In outline:
(§1)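 Compounds in non-phytotoxic solvent with surfactant. Soil: loam/sand. Preemergence via directed soil spray after seeding; postemergence on seedlings 2–10 cm, one- to two-leaf.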

In test [2] the test system is kochia (Bassia scoparia). Put plainly: Test A preemergence, kochia. In kind it is in vivo. As to conditions: Bassia scoparia, pre-emergence, 240 h, Preemergence; for pest or weed control at 125 g/ha: 125 g ai/ha; for pest or weed control at 500 g/ha: 500 g ai/ha. Put shortly: as §1
In test [3] the test system is blackgrass (Alopecurus myosuroides). Kind of test: Test A postemergence, blackgrass. As to conditions: Alopecurus myosuroides, post-emergence, 240 h, Postemergence, 0 to 100 scale (0 no effect, 100 complete control); for pest or weed control at 125 g/ha: 125 g ai/ha; for pest or weed control at 500 g/ha: 500 g ai/ha. In kind it is in vivo. In outline: as §1
Test [4] deals with barnyardgrass (Echinochloa crus-galli). Put plainly: Test B flooded paddy test, barnyardgrass. As to conditions: 336 h, read-out: Plant response rating, Barnyardgrass.
Test [5] concerns Ryegrass, Italian (Italian ryegrass, Lolium multiflorum). Kind of test: Test A preemergence, Ryegrass, Italian. The test is classed as in vivo. The note with it: Lolium multiflorum, pre-emergence, 240 h, Preemergence; for pest or weed control at 125 g/ha: 125 g ai/ha; for pest or weed control at 500 g/ha: 500 g ai/ha. Put shortly: as §1
The mark [6] stands for this setting: visual injury approx. 10 days, read-out: Plant response rating, Ragweed.
The mark [7] stands for this setting: visual injury, approx. 10 days, read-out: Plant response rating, Ragweed.
Setting [8] is: visual injury on 0 to 100 scale (0 no effect, 100 complete control), approximately 10 days, read-out: Kochia plant response rating.
The mark [9] stands for this setting: 0 to 100 scale (0 no effect, 100 complete control), read-out: Plant response rating, Kochia.
Where [10] appears, read: visual injury approx. 10 days, read-out: Plant response rating, Blackgrass.
The mark [11] stands for this setting: visual injury, approx. 10 days, read-out: Plant response rating, Blackgrass.
[12] abbreviates: visual injury on 0 to 100 scale (0 no effect, 100 complete control), approximately 10 days, read-out: Ryegrass, Italian plant response rating.
Where [13] appears, read: 0 to 100 scale (0 no effect, 100 complete control), read-out: Plant response rating, Ryegrass, Italian.
Where [14] appears, read: visual injury vs untreated controls after approx. 10 days, read-out: Ragweed plant response rating.
Where [15] appears, read: visual injury vs untreated controls after approx. 10 days, read-out: Blackgrass plant response rating.
Where [16] appears, read: read-out: Plant response rating, Ragweed.
The mark [17] stands for this setting: read-out: Plant response rating, Blackgrass.

As to `Cc1cc(Cl)c(NS(=O)(=O)C(F)(F)F)cc1C(=O)N1CCOCC1` [Compound 16, N-[2-Chloro-4-methyl-5-(4-morpholinylcarbonyl)phenyl]-1,1,1-trifluoromethanesulfonamide], the pest or weed control at 125 g/ha worked out at 80% in test [1] (setting [6]), 90% in test [2] (setting [8]), 50% in test [3] (setting [10]) and 90% in test [5] (setting [12]). For the same compound, the pest or weed control at 500 g/ha in test [1] (setting [7]) worked out at 90%; in test [2] (setting [9]), 90%; in test [3] (setting [11]) it was 40%; in test [5] (setting [13]), 100%. Further, the pest or weed control at 250 g/ha in test [4] is 25%.
As for `Cc1cc(Cl)c(NS(=O)(=O)C(F)(F)F)cc1C(=O)N1CCCCC1` [Compound 18, N-[2-Chloro-4-methyl-5-(1-piperidinylcarbonyl)phenyl]-1,1,1-trifluoromethanesulfonamide], the pest or weed control at 125 g/ha is 0% in test [1] (setting [6]), 10% in test [2] (setting [8]), 0% in test [3] (setting [10]) and 90% in test [5] (setting [12]). Further, the pest or weed control at 500 g/ha was determined as 80% in test [1] (setting [7]), 60% in test [2] (setting [9]), 0% in test [3] (setting [11]) and 90% in test [5] (setting [13]). The pest or weed control at 250 g/ha in test [4] came out at 0%.
`CCc1cc(-c2cc(NS(=O)(=O)C(F)(F)F)c(C)cc2C)c(=O)n(C)n1` [Compound 34, N-[5-(6-Ethyl-2,3-dihydro-2-methyl-3-oxo-4-pyridazinyl)-2,4-dimethylphenyl]-1,1,1-trifluoromethanesulfonamide]: the pest or weed control at 125 g/ha in test [1] (setting [6]) stood at 0%; in test [2] (setting [8]), 30%; in test [3] (setting [10]), 0%; in test [5] (setting [12]), 30%. Further, the pest or weed control at 500 g/ha in test [1] (setting [7]) is 0%; in test [2] (setting [9]), 70%; in test [3] (setting [11]), 0%; in test [5] (setting [13]) it was 70%. Also, in test [4], the pest or weed control at 250 g/ha turned out to be 0%.
As to `Cc1cc(C)c(N(COC(=O)C(C)(C)C)S(=O)(=O)C(F)(F)F)cc1C1=NO[C@@H]2CCC[C@H]12` [Compound 100, [[2,4-Dimethyl-5-[(3aR,6aR)-3a,5,6,6a-tetrahydro-4H-cyclopent[d]isoxazol-3-yl]phenyl][(trifluoromethyl)sulfonyl]amino]methyl 2,2-dimethylpropanoate], the pest or weed control at 125 g/ha in test [1] (setting [6]) amounted to 40%; in test [2] (setting [8]) it was 60%; in test [3] (setting [10]), 0%; in test [5] (setting [12]) it was 40%. The pest or weed control at 500 g/ha in test [1] (setting [14]) worked out at 80%; in test [2] (setting [9]), 80%; in test [3] (setting [15]), 0%; in test [5] (setting [13]), 70%. In addition, in test [4], the pest or weed control at 250 g/ha came out at 90%.
On to `Cc1cc(C)c(C2=NO[C@@H]3CCC[C@H]23)cc1NS(=O)(=O)C(F)(F)F` [Compound 103, N-[2,4-Dimethyl-5-[(3aR,6aR)-3a,5,6,6a-tetrahydro-4H-cyclopent[d]isoxazol-3-yl]phenyl]-1,1,1-trifluoromethanesulfonamide], for which the pest or weed control at 125 g/ha in test [1] (setting [6]) is 60%; in test [2] (setting [8]), 80%; in test [3] (setting [10]), 0%; in test [5] (setting [12]), 90%. For the same compound, the pest or weed control at 500 g/ha in test [1] (setting [14]) is 70%; in test [2] (setting [9]) it was 90%; in test [3] (setting [15]), 30%; in test [5] (setting [13]), 90%. Besides, the pest or weed control at 250 g/ha in test [4] was determined as 85%.
`Cc1cc(C)c(C2=NOC3CCOCC23)cc1NS(=O)(=O)C(F)(F)F` (stereo not drawn) [Compound 120, N-[2,4-Dimethyl-5-(3a,6,7,7a-tetrahydro-4H-pyrano[3,4-d]isoxazol-3-yl)phenyl]-1,1,1-trifluoromethanesulfonamide]: the pest or weed control at 125 g/ha in test [1] (setting [6]) came to 80%; in test [2] (setting [8]), 90%; in test [3] (setting [10]), 20%; in test [5] (setting [12]) it was 100%. For the same compound, the pest or weed control at 500 g/ha turned out to be 90% in test [1] (setting [14]), 100% in test [2] (setting [9]), 70% in test [3] (setting [15]) and 100% in test [5] (setting [13]). Moreover, in test [4], the pest or weed control at 250 g/ha worked out at 0%.
With `Cc1cc(C)c(C2=NOC3COCCC23)cc1NS(=O)(=O)C(F)(F)F` (stereo not drawn) [Compound 121, N-[2,4-Dimethyl-5-(3a,4,7,7a-tetrahydro-5H-pyrano[4,3-d]isoxazol-3-yl)phenyl]-1,1,1-trifluoromethanesulfonamide], the pest or weed control at 125 g/ha in test [1] (setting [6]) turned out to be 90%; in test [2] (setting [8]), 90%; in test [3] (setting [10]), 40%; in test [5] (setting [12]) it was 100%. The pest or weed control at 500 g/ha is 90% in test [1] (setting [14]), 90% in test [2] (setting [9]), 80% in test [3] (setting [15]) and 100% in test [5] (setting [13]). Also, in test [4], the pest or weed control at 250 g/ha came to 40%.
For the compound `Cc1c(NS(=O)(=O)C(F)(F)F)cc(C(=O)N(C)C)c(C)c1F` [Compound 128, 3-Fluoro-N,N,2,4-tetramethyl-5-[[(trifluoromethyl)sulfonyl]amino]benzamide], the pest or weed control at 125 g/ha is 80% in test [1] (setting [6]), 80% in test [2] (setting [8]), 10% in test [3] (setting [10]) and 100% in test [5] (setting [12]). Moreover, the pest or weed control at 500 g/ha turned out to be 90% in test [1] (setting [14]), 80% in test [2] (setting [9]), 30% in test [3] (setting [15]) and 100% in test [5] (setting [13]). Further, the pest or weed control at 250 g/ha in test [4] amounted to 30%.
On to `Cc1cc(C)c(N(COC(=O)C(C)(C)C)S(=O)(=O)C(F)(F)F)cc1C1=NOC2(CCCC2)C1` [Compound 140, [[2,4-Dimethyl-5-(1-oxa-2-azaspiro[4.4]non-2-en-3-yl)phenyl][(trifluoromethyl)sulfonyl]amino]methyl 2,2-dimethylpropanoate], for which the pest or weed control at 125 g/ha in test [1] (setting [16]) was 0%; in test [2] (setting [8]), 0%; in test [3] (setting [10]), 30%; in test [5] (setting [12]), 0%. Moreover, the pest or weed control at 500 g/ha in test [1] (setting [14]) came to 50%; in test [2] (setting [9]), 70%; in test [3] (setting [15]), 30%; in test [5] (setting [13]), 100%. Moreover, the pest or weed control at 250 g/ha in test [4] turned out to be 95%.
For `Cc1cc(C)c(N(COC(=O)C(C)(C)C)S(=O)(=O)C(F)(F)F)cc1C1=NOC2(CCCCC2)C1` [Compound 159, [[2,4-Dimethyl-5-(1-oxa-2-azaspiro[4.5]dec-2-en-3-yl)phenyl][(trifluoromethyl)sulfonyl]amino]methyl 2,2-dimethylpropanoate], the pest or weed control at 125 g/ha in test [1] (setting [16]) is 60%; in test [2] (setting [8]), 40%; in test [3] (setting [17]), 0%; in test [5] (setting [12]) it was 0%. Also, the pest or weed control at 500 g/ha in test [1] (setting [14]) was 90%; in test [2] (setting [9]), 70%; in test [3] (setting [15]) it was 20%; in test [5] (setting [13]), 30%. For the same compound, the pest or weed control at 250 g/ha in test [4] amounted to 65%.
`Cc1c(NS(=O)(=O)C(F)(F)F)cc(C(=O)N2CCOCC2)c(C)c1F` [Compound 190, 1,1,1-Trifluoro-N-[3-fluoro-2,4-dimethyl-5-(4-morpholinylcarbonyl)phenyl]methanesulfonamide]: the pest or weed control at 125 g/ha in test [1] (setting [16]) stood at 80%; in test [2] (visual injury, 0 to 100 scale (0 no effect, 100 complete control), approx. 10 days, read-out: Plant response rating, Kochia), 90%; in test [3] (setting [17]), 10%; in test [5] (visual injury, 0 to 100 scale (0 no effect, 100 complete control), approx. 10 days, read-out: Plant response rating, Ryegrass, Italian), 70%. The pest or weed control at 500 g/ha in test [1] (setting [14]) stood at 90%; in test [2] (setting [9]) it was 100%; in test [3] (setting [15]), 40%; in test [5] (setting [13]), 100%. Besides, the pest or weed control at 250 g/ha in test [4] turned out to be 0%.
